# Assay results reported in patent US20210238192A1, “VASCULAR ADHESION PROTEIN-1 (VAP-1) MODULATORS AND THERAPEUTIC USES THEREOF” (Blade Therapeutics, Inc., priority 2018, published 2021).
# Counter-ions that a name gives are not always drawn.
# How the values were obtained:
# Type in all cases: biochemical
# Human VAP-1 = target: T1, Human VAP-1 (Homo sapiens, UniProt Q16853); assay: VAP-1 inhibition assay (Amplex Red continuous fluorescence assay); settings: 30 min pre-incubation at 37° C.; substrate benzylamine; read-out: Human VAP-1 IC50
# T1 sequence (Q16853 1-763): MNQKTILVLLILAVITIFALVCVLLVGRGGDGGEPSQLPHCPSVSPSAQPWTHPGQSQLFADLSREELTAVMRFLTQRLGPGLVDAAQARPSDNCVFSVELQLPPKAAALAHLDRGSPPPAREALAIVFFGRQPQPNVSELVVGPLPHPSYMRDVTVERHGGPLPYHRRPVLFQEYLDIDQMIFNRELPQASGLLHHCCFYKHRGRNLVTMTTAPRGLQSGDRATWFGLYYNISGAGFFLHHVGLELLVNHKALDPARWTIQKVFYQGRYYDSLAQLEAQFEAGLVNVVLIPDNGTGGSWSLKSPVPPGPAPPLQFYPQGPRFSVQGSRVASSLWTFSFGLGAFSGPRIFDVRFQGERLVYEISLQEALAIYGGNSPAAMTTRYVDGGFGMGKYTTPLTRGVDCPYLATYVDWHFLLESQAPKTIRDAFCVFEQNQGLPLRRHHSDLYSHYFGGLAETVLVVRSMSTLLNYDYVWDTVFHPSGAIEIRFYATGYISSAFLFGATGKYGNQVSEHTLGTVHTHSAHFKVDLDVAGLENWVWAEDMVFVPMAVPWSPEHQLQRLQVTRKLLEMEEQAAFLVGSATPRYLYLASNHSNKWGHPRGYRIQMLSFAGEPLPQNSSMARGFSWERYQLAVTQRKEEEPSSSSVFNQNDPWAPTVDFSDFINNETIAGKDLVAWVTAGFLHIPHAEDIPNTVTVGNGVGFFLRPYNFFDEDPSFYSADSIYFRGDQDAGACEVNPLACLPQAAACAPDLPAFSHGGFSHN
# Procedure: (§1) VAP-1, DAO, MAO-A, MAO-B, and HRP activity and inhibition thereof was assessed by means of a continuous fluorescence assay. The Amplex Red Hydrogen Peroxide/Peroxidase Assay (ThermoFisher) was optimized for detecting amine oxidase (AO) activity. In an enzyme-coupled reaction, the H2O2 generated by AO reacts 1:1 with Amplex Red reagent to produce fluorescent product resorufin.
# (§2) Assays were typically setup in black 384-well plates using automated liquid handling as follows. VAP-1/MAO assay buffer contains […] sodium phosphate, pH 7.4; DAO assay buffer contains 50 mM HEPES, pH 7.5; HRP assay buffer contains 100 mM CHES, 1 mM MgCl2, 50 mM NaCl, 0.05% BSA, pH 9.0. Inhibitors were serially diluted in DMSO and used to setup 2× mixtures with AO in the aforementioned buffer. After 30 min pre-incubation at 37° C. (VAP-1, HRP) or room temp (DAO, MAO), the reaction was initiated by adding a 2× mix of Amplex Red, HRP (coupling enzyme), and substrate (benzylamine, histamine, tyramine, benzylamine, H2O2, for VAP-1, DAO, MAO-A, MAO-B, and HR, respectively) in the same buffer. Reaction progress curve data were typically collected for 5 min using excitation/emission wavelengths of 510 nm/565 nm on FLIPR-Tetra plate readers (Molecular Devices Inc). Reaction rates were calculated from progress curve slopes typically over 60-150 sec. Dose response curves (rate vs. log inhibitor concentration) were typically fit to a 4-parameter logistic function to extract IC50 values.
# Human MAO-A = target: T2, Human MAO-A (Homo sapiens, UniProt P21397); assay: MAO-A inhibition (Amplex Red continuous fluorescence assay); settings: 30 min pre-incubation at room temp; substrate tyramine; read-out: Human MAO-A IC50
# T2 sequence (P21397 1-527): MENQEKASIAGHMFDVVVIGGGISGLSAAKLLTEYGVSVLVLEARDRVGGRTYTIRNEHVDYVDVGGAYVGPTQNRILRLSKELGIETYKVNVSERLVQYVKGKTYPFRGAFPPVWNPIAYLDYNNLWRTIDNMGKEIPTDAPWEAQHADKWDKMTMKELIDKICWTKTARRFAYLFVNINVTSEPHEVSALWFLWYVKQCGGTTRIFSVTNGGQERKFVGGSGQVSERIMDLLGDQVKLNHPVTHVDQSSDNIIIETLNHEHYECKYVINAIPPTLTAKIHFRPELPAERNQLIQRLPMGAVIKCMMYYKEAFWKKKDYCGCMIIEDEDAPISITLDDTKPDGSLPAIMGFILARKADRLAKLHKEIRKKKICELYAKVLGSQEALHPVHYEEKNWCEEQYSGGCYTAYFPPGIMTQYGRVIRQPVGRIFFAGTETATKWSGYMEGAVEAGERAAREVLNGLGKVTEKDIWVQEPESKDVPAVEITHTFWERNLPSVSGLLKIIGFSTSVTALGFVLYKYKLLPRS
# Procedure: as §1, §2
# Human MAO-B = target: T3, Human MAO-B (Homo sapiens, UniProt P27338); assay: MAO-B inhibition (Amplex Red continuous fluorescence assay); settings: 30 min pre-incubation at room temp; substrate benzylamine; read-out: Human MAO-B IC50
# T3 sequence (P27338 1-520): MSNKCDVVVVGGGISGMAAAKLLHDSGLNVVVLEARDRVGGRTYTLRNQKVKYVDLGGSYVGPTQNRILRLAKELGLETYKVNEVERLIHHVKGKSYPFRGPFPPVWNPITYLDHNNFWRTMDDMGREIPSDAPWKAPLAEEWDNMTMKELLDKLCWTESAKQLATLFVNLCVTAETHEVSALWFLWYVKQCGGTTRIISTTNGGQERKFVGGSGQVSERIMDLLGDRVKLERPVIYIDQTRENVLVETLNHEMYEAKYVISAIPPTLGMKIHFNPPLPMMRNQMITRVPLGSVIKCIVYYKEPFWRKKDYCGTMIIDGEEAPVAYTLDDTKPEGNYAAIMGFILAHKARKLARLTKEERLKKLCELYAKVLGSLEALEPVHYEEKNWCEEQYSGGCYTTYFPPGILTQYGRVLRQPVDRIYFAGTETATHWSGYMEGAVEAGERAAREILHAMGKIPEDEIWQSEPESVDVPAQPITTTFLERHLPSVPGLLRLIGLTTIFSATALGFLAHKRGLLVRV
# Procedure: as §1, §2
# Human DAO = target: T4, Human DAO (Homo sapiens, UniProt P19801); assay: DAO inhibition (Amplex Red continuous fluorescence assay); settings: 30 min pre-incubation at room temp; substrate histamine; read-out: Human DAO IC50
# T4 sequence (P19801 20-751): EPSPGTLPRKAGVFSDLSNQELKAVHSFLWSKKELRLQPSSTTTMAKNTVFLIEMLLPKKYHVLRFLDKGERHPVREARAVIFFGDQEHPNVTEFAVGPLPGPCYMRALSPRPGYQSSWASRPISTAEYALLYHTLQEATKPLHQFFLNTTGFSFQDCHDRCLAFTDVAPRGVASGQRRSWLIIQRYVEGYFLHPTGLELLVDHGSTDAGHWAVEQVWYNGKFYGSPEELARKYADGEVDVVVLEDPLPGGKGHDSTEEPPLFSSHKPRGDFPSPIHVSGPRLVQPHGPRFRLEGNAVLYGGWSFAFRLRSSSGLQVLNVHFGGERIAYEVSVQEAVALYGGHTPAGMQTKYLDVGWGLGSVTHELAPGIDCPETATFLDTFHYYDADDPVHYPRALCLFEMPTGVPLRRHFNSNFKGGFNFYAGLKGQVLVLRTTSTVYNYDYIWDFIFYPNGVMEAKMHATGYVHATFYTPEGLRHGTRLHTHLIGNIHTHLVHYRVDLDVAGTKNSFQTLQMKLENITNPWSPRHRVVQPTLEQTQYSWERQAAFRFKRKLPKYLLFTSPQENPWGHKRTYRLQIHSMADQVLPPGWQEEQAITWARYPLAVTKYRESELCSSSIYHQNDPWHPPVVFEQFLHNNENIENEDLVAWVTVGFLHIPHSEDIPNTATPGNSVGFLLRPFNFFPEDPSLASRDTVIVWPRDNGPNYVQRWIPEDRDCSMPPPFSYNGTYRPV
# Procedure: as §1, §2
SMILES,IC50 (Human VAP-1),IC50 (Human MAO-A),IC50 (Human MAO-B),IC50 (Human DAO)
"NC/C(=C\F)Cn1ccc2ccccc21 [Compound 15, (E)-2-((1H-indol-1-yl)methyl)-3-fluoroprop-2-en-1-amine hydrochloride]",< 3 µM,< 3 µM,< 3 µM,> 10 µM
"NC/C(=C\F)CNC(=O)c1ccccc1 [Compound 21, (E)-N-(2-(aminomethyl)-3-fluoroalkyl)benzamide hydrochloride]",< 3 µM,3 to 10 µM,> 10 µM,> 10 µM
"CCNC(=O)N(C)c1ccc(OC/C(=C/F)CN)cc1 [Compound 23, (E)-1-(4-((2-(aminomethyl)-3-fluoroalkyl)oxy)phenyl)-3-ethyl-1-methylurea hydrochloride]",< 3 µM,> 10 µM,3 to 10 µM,> 10 µM
"CCN(CC)C(=O)Nc1ccc(OC/C(=C/F)CN)cc1 [Compound 24, (E)-3-(4-((2-(aminomethyl)-3-fluoroalkyl)oxy)phenyl)-1,1-diethylurea hydrochloride]",< 3 µM,3 to 10 µM,< 3 µM,> 10 µM
"NC/C(=C\F)COc1ccc(-c2ncco2)cc1 [Compound 25, (E)-3-fluoro-2-((4-(oxazol-2-yl)phenoxy)methyl)prop-2-en-1-amine hydrochloride]",< 3 µM,3 to 10 µM,< 3 µM,< 3 µM
"NC/C(=C\F)CNCc1ccccc1 [Compound 26, (E)-N^1-benzyl-2-(fluoromethylene)propane-1,3-diamine]",< 3 µM,3 to 10 µM,< 3 µM,> 10 µM
"Cn1ccnc1-c1ccc(OC/C(=C\F)CN)cc1 [Compound 28, hydrochloride]",< 3 µM,> 10 µM,< 3 µM,< 3 µM
"NC/C(=C\F)COc1ccc(-c2cocn2)cc1 [Compound 29, (E)-3-fluoro-2-((4-(oxazol-4-yl)phenoxy)methyl)prop-2-en-1-amine hydrochloride]",< 3 µM,< 3 µM,< 3 µM,< 3 µM
"NC/C(=C/F)COc1ccc(-c2cocn2)cc1 [Compound 30, (Z)-3-fluoro-2-((4-(oxazol-4-yl)phenoxy)methyl)prop-2-en-1-amine hydrochloride]",< 3 µM,< 3 µM,< 3 µM,< 3 µM
"NC/C(=C\F)COc1ccc(-c2ccccc2)cc1 [Compound 33, (E)-2-(([1,1′-biphenyl]-4-yloxy)methyl)-3-fluoroprop-2-en-1-amine hydrochloride]",< 3 µM,< 3 µM,< 3 µM,> 10 µM
"NC/C(=C/F)COc1ccc(-c2ccccc2)cc1 [Compound 34, (Z)-2-(([1,1′-biphenyl]-4-yloxy)methyl)-3-fluoroprop-2-en-1-amine hydrochloride]",< 3 µM,< 3 µM,< 3 µM,< 3 µM

# Second part, the compound after the results:
IC50 (Human VAP-1),IC50 (Human MAO-A),IC50 (Human MAO-B),IC50 (Human DAO),SMILES
< 3 µM,< 3 µM,< 3 µM,< 3 µM,"NC/C(=C/F)COc1ccc(-c2nc3ccccc3[nH]2)cc1 [Compound 11, (Z)-2-((4-(1H-benzo[d]imidazol-2-yl)phenoxy)methyl)-3-fluoroprop-2-en-1-amine hydrochloride]"
< 3 µM,< 3 µM,< 3 µM,3 to 10 µM,CCOC(=O)Nc1ccc(OC/C(=C/F)CN)cc1 [Compound 13]
< 3 µM,< 3 µM,< 3 µM,3 to 10 µM,"NC/C(=C\F)COc1cccc2c1OCO2 [Compound 14, (E)-2-((benzo[d][1,3]dioxol-4-yloxy)methyl)-3-fluoroprop-2-en-1-amine hydrochloride]"
< 3 µM,< 3 µM,< 3 µM,< 3 µM,"NC/C(=C/F)COc1cccc2c1OCO2 [Compound 16, (Z)-2-((benzo[d][1,3]dioxol-4-yloxy)methyl)-3-fluoroprop-2-en-1-amine hydrochloride]"
< 3 µM,< 3 µM,< 3 µM,3 to 10 µM,"CC(C)NC(=O)Nc1ccc(OC/C(=C/F)CN)cc1 [Compound 18, (E)-1-(4-((2-(aminomethyl)-3-fluoroalkyl)oxy)phenyl)-3-isopropylurea hydrochloride]"
< 3 µM,3 to 10 µM,< 3 µM,< 3 µM,"NC/C(=C\F)COc1ccc(-c2nccs2)cc1 [Compound 19, (E)-3-fluoro-2-((4-(thiazol-2-yl)phenoxy)methyl)prop-2-en-1-amine hydrochloride]"
< 3 µM,< 3 µM,< 3 µM,< 3 µM,"NC/C(=C/F)COc1ccc(-c2nccs2)cc1 [Compound 20, (Z)-3-Fluoro-2-((4-(Thiazol-2-Yl)Phenoxy)Methyl)Prop-2-En-1-Amine Hydrochloride]"
